The experiment has as its system E. coli, Streptococcus sp. and Proteus sp. isolated from the xenic culture. In words: Antibiotic susceptibility tests (antibiotic discs) with bacterial strains isolated from the xenic culture. The settings on record: strains isolated from original xenic culture (E. coli, Streptococcus sp., Proteus sp.).

Here are results for two compounds from patent US10350281B2 (priority 2012, dated 2019).

Turning to `C[C@@H](O)[C@H]1C(=O)N2C(C(=O)O)=C(S[C@@H]3CN[C@H](C(=O)N(C)C)C3)[C@H](C)[C@H]12` [meropenem], the “susceptibility tests of the bacterial strains” value is “resistant to most antibiotics, except meropenem, neomycin and rifampicin”.
The result for neomycin reads “resistant to most antibiotics, except meropenem, neomycin and rifampicin”.
